According to patent EP2325185A1, “Plk inhibitor” (GPC Biotech AG, priority 2009, dated 2011):
pIC50: −log10 of the molar value. Read-outs that look alike come from different tables or passages of the source.

Experiments:
NCI-H460 tumor cells = assay: Mouse xenograft model using human NCI-H460 cells; assay type: in vivo; conditions: for mean body weight / mean body weight change: end of day four after begin of treatment; for mice died: mouse, in vivo
Experimental: […]. Human HT-29 cells (ATCC) colon carcinoma cell line are cultured in McCoy's medium (ATCC) supplied with 10% FCS and 1% Pen/Strep. The 2nd passage of cells with approximately 80% confluence is used in the study. Briefly, on Day 0, mice are inoculated with 0.1 ml (total 5x10^6 cells) of HT-29 cell suspension (50x10^6 cells/ml in McCoy's medium without supplements mixed 1:1 with Matrigel) by a subcutaneous injection into the lower right flank under light anesthesia. When the average tumor weights reaches above 100mg, animals with an appropriate tumor size are selected and are randomly divided into treatment groups (10 animals each).
Tumor growth and body weight are monitored and recorded twice a week. Tumors are measured by determining the length and width of the tumor with a digital caliper. Tumor weight is estimated using the following formula: Tumor Weight (mg) = (w^2 x 1) / 2 where w = width and I = length in mm of the tumor.
Toxic deaths are defined as deaths caused by compound treatment and not by advanced disease state. […].
In a model similar to the one described in a), mice were inoculated with NCI-H460 tumor cells, and treated (9 mice for each treatment group) with either vehicle only (NMP:PEG300), compound 1 (70 mg/kg once per week), compound 1 (35 mg/kg twice per week), BI 6727 (70 mg/kg once per week) and gemcitabine (25 mg/kg, once per week) (vivoPharm Europe Limited, Munich, Germany). At the end of day four after begin of treatment, the mean body weight for the compound 1 treatment groups had dropped from 20.5 g to 19.2 g (~5%; standard deviation 2.6 g), and from 20.1 g to 19.3 g (-4%; standard deviation 0.9 g), respectively, and one mouse in the high-dose treatment group had died. In contrast, in the BI 6727 treatment group, the mean body weight had dropped from 20.2 g to 16.2 g (-20%; standard deviation 1.5 g), five mice had died and the remaining mice had to be killed for ethical reasons.

SW620 = assay: SRB cell proliferation assay, SW620; assay type: cell-based; conditions: Homo sapiens, SW-620; SW620 (colon); compound 1 tested in racemic mixture
Experimental: (§1) Cells were exposed to the test compound racemate at various concentrations appropriate to determine an IC50 for 72 hours. Cell proliferation was measured using the SRB assay according to Shekan et al (J Natl Cancer Inst (1990) 82, 1107-112) in order to estimate the IC50 values shown in Table 3. Briefly, cells were plated in 96 well dishes 24 hours prior to compound addition at the densities specified in Table 5.1. The assay was terminated with the addition of cold TCA to a final concentration of 10% after growth medium has been removed and the plates were incubated over night at 4°C. The plates were then washed 5 times with water and 100µl of a Sulforhodamine B solution ([…]) was added to each well. The plates were then incubated for 10 minutes at room temperature before removal of unbound dye by washing with 1% acetic acid. The bound dye was solubilised with 10 mM Trizma base and the absorbance read at OD520.
(§2) Inhibitory activity of the compound (IC) was calculated as % inhibition of cell proliferation compared to cells treated with the solvent (DMSO).
(§3) Table 8.1: 18-Cell Line Panel

[1] = system: panel of 57 tumor cell lines; assay: Panel of 57 tumor cell lines (OncoLead), growth inhibition; assay type: cell-based
Experimental: In a similar experiment, the inhibitory activity of compound 1 was tested against a panel of 57 tumor cell lines (OncoLead GmbH&Co.KG, Martinsried, Germany) under conditions of non-disclosure, non-dissemination and non-use.
In 18 cell lines, the GI50 value was between 1 µM and 0.1 µM, and in 31 cell lines, the GI50 value was below 0.1 µM.

A-375 = assay: SRB cell proliferation assay, A-375; assay type: cell-based; conditions: Homo sapiens; A-375 (melanoma); compound 1 tested in racemic mixture
Experimental: as §1, §2, §3

MDA-MB-468 = assay: SRB cell proliferation assay, MDA-MB-468; assay type: cell-based; conditions: MDA-MB-468 (breast), compound 1 tested in racemic mixture
Experimental: as §1, §2, §3

HCT 116 = assay: SRB cell proliferation assay, HCT 116; assay type: cell-based; conditions: Homo sapiens; HCT 116 (colon); compound 1 tested in racemic mixture; read-out: IC50
Experimental: as §1, §2, §3

OVCAR-3 = assay: SRB cell proliferation assay, OVCAR-3; assay type: cell-based; conditions: Homo sapiens; OVCAR-3 (ovary); compound 1 tested in racemic mixture
Experimental: as §1, §2, §3

A-431 = assay: SRB cell proliferation assay, A-431; assay type: cell-based; conditions: Homo sapiens; A-431 (skin); compound 1 tested in racemic mixture
Experimental: as §1, §2, §3

SK-MEL-28 = assay: SRB cell proliferation assay, SK-MEL-28; assay type: cell-based; conditions: Homo sapiens; SK-MEL-28 (melanoma); compound 1 tested in racemic mixture
Experimental: as §1, §2, §3

[2] = system: 255 other protein kinases; assay: Standard selectivity panel (ProQinase), 255 other kinases; assay type: biochemical; conditions: 1 µM, duplicates; all other kinases
Experimental: (§4) The compound of the present invention was tested in a standard selectivity panel including Plkl and 255 other kinases (ProQinase GmbH, Freiburg, Germany), under conditions of non-disclosure, non-dissemination and non-use.
(§5) In brief, compound 1 (see Table 1) was tested at 1 µM in duplicates against Plk1 as well as against 255 other protein kinases, including Abl, Aktl, Aur A, Kit, Raf-1, Cdkl/CycB1, Chk1, FGF-R3, Flt3, Fyn, IGF1-R, INS-R, Lyn, p38a, PAK4, PKCalpha, Ret, ROCK2, Src, TIE2, and VEGF-R2. The test compound 1 inhibited Plk1 by more than about 90%, only three other kinases were inhibited by between about 50% and about 90%, about 13 kinases by between about 10% and about 50%, and all other kinases were inhibited by less than about 10%.

A549 = assay: SRB cell proliferation assay, A549; assay type: cell-based; conditions: Homo sapiens; A549 (lung); compound 1 tested in racemic mixture
Experimental: as §1, §2, §3

PC-3 = assay: SRB cell proliferation assay, PC-3; assay type: cell-based; conditions: Homo sapiens; PC-3 (prostate); compound 1 tested in racemic mixture
Experimental: as §1, §2, §3

Plk1 = Plk1 (Homo sapiens, UniProt P53350); assay: Standard selectivity panel (ProQinase), Plk1; assay type: biochemical; set-up: purchased ProQinase GmbH, Freiburg, Germany; conditions: duplicates, read-out: inhibited Plk1
Plk1, sequence (P53350 whole entry, species assumed): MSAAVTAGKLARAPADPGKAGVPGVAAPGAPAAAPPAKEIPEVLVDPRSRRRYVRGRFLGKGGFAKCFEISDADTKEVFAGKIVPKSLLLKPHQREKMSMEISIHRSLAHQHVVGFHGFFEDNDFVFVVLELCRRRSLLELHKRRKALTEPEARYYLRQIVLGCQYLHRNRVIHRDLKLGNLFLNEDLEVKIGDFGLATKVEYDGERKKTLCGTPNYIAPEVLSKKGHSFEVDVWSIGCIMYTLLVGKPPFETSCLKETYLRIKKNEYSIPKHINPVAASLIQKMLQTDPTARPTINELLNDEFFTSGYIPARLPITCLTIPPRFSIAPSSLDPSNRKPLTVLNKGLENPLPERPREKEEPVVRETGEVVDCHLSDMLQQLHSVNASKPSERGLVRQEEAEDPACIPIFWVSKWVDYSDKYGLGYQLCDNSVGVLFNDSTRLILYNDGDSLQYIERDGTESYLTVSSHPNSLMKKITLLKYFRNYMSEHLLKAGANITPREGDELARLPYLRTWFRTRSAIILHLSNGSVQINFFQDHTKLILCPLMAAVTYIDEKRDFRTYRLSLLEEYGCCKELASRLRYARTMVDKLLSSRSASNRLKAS
Experimental: as §4, §5

NCI-H460 = assay: SRB cell proliferation assay, NCI-H460; assay type: cell-based; conditions: Homo sapiens; NCI-H460 (NSCLC); compound 1 tested in racemic mixture
Experimental: as §1, §2, §3

IMR-90 = assay: SRB cell proliferation assay, IMR-90; assay type: cell-based; conditions: Homo sapiens; IMR-90 (lung); compound 1 tested in racemic mixture; read-out: IC50
Experimental: as §1, §2, §3

HT-29 = assay: SRB cell proliferation assay, HT-29; assay type: cell-based; conditions: Homo sapiens; HT-29 (colon); compound 1 tested in racemic mixture; read-out: IC50
Experimental: as §1, §2, §3

DU 145 = assay: SRB cell proliferation assay, DU 145; assay type: cell-based; conditions: Homo sapiens; DU 145 (prostate); compound 1 tested in racemic mixture
Experimental: as §1, §2, §3

COLO 205 = assay: SRB cell proliferation assay, COLO 205; assay type: cell-based; conditions: Homo sapiens; COLO 205 (colon); compound 1 tested in racemic mixture
Experimental: as §1, §2, §3

HeLa = assay: SRB cell proliferation assay, HeLa; assay type: cell-based; conditions: Homo sapiens; HeLa (cervix); compound 1 tested in racemic mixture
Experimental: as §1, §2, §3

SK-MEL-5 = assay: SRB cell proliferation assay, SK-MEL-5; assay type: cell-based; conditions: Homo sapiens; SK-MEL-5 (melanoma); compound 1 tested in racemic mixture
Experimental: as §1, §2, §3

ACHN = assay: SRB cell proliferation assay, ACHN; assay type: cell-based; conditions: Homo sapiens; ACHN (kidney); compound 1 tested in racemic mixture
Experimental: as §1, §2, §3

MDA-MB-231 = assay: SRB cell proliferation assay, MDA-MB-231; assay type: cell-based; conditions: Homo sapiens; MDA-MB-231 (breast); compound 1 tested in racemic mixture
Experimental: as §1, §2, §3

CC[C@@H]1C(=O)N(C)c2cnc(Nc3ccc(C(=O)N[C@H]4CC[C@H](N5CCN(CC6CC6)CC5)CC4)cc3OC)nc2N1C(C)C [BI 6727, reference compound]
mean body weight (NCI-H460 tumor cells; 70 mg/kg once per week): 16.2 g | mean body weight change (NCI-H460 tumor cells; 70 mg/kg once per week): -20% | mice died (NCI-H460 tumor cells): five

CC[C@@H]1C(=O)N(C)c2cnc(Nc3ccc(C(=O)N[C@H]4CC[C@H](N5CCN(CC6CC6)CC5)CC4)cc3OC)nc2N1N(C)C [Compound 1, (7R)-N-[trans-4-(4-Cyclopropylmethyl-piperazin-1-yl)-cyclohexyl]-4-(8-dimethylamino-7-ethyl-5-methyl-6-oxo-5,6,7,8-tetrahydro-pteridin-2-ylamino)-3-methoxy-benzamide]
pIC50 (SW620): > 6.00 | GI50 ([1]; in 18 cell lines of 57): 100 to 1000 nM | GI50 ([1]; in 31 cell lines of 57): < 100 nM | GI50 ([1]; in about 49 cell lines of 57): < 1000 nM | pIC50 (A-375): > 6.00 | pIC50 (MDA-MB-468; Homo sapiens, read-out: IC50): < 6.00 | pIC50 (HCT 116): > 6.00 | mean body weight (NCI-H460 tumor cells; 35 mg/kg twice per week): 19.3 g | mean body weight change (NCI-H460 tumor cells; 35 mg/kg twice per week): -4% | tumor growth (NCI-H460 tumor cells; 70 mg/kg once per week and 35 mg/kg twice per week, compared with vehicle only or gemcitabine groups): a reduction of tumor growth could be observed | mean body weight (NCI-H460 tumor cells; 70 mg/kg once per week): 19.2 g | mean body weight change (NCI-H460 tumor cells; 70 mg/kg once per week): ~ 5% | mice died (NCI-H460 tumor cells): one | pIC50 (OVCAR-3): > 6.00 | pIC50 (A-431): > 6.00 | pIC50 (SK-MEL-28): < 6.00 | kinases inhibited [2]: less than 10% | pIC50 (A549): > 6.00 | pIC50 (PC-3): > 6.00 | inhibition at 1 µM (Plk1): > 90% | pIC50 (NCI-H460): > 6.00 | pIC50 (IMR-90): < 6.00 | pIC50 (HT-29): > 6.00 | pIC50 (DU 145): > 6.00 | pIC50 (COLO 205): > 6.00 | pIC50 (HeLa): > 6.00 | pIC50 (SK-MEL-5): > 6.00 | pIC50 (ACHN): > 6.00 | pIC50 (MDA-MB-231): > 6.00

CC[C@@H]1C(=O)N(C)c2cnc(Nc3ccc(C(=O)NC4CCN(C)CC4)cc3OC)nc2N1C1CCCC1 [BI 2536, reference compound]
pIC50 (SW620): > 6.00 | pIC50 (A-375): > 6.00 | IC50 (MDA-MB-468): plateau at ∼50% | pIC50 (HCT 116): > 6.00 | pIC50 (OVCAR-3): > 6.00 | pIC50 (A-431): > 6.00 | pIC50 (SK-MEL-28): > 6.00 | pIC50 (A549): > 6.00 | pIC50 (PC-3): > 6.00 | pIC50 (NCI-H460): > 6.00 | pIC50 (IMR-90): < 6.00 | pIC50 (HT-29): > 6.00 | pIC50 (DU 145): > 6.00 | pIC50 (COLO 205): > 6.00 | pIC50 (HeLa): > 6.00 | pIC50 (SK-MEL-5): > 6.00 | pIC50 (ACHN): > 6.00 | pIC50 (MDA-MB-231): > 6.00
